# Patent publication EP3807270B1, “NOVEL HETEROARYL HETEROCYCLYL COMPOUNDS FOR THE TREATMENT OF AUTOIMMUNE DISEASE” (F. Hoffmann-La Roche AG, priority 2018, dated 2019)
# Biological target: T1, hTLR9 (Homo sapiens, UniProt Q9NR96)
# T1 sequence (Q9NR96 26-1032): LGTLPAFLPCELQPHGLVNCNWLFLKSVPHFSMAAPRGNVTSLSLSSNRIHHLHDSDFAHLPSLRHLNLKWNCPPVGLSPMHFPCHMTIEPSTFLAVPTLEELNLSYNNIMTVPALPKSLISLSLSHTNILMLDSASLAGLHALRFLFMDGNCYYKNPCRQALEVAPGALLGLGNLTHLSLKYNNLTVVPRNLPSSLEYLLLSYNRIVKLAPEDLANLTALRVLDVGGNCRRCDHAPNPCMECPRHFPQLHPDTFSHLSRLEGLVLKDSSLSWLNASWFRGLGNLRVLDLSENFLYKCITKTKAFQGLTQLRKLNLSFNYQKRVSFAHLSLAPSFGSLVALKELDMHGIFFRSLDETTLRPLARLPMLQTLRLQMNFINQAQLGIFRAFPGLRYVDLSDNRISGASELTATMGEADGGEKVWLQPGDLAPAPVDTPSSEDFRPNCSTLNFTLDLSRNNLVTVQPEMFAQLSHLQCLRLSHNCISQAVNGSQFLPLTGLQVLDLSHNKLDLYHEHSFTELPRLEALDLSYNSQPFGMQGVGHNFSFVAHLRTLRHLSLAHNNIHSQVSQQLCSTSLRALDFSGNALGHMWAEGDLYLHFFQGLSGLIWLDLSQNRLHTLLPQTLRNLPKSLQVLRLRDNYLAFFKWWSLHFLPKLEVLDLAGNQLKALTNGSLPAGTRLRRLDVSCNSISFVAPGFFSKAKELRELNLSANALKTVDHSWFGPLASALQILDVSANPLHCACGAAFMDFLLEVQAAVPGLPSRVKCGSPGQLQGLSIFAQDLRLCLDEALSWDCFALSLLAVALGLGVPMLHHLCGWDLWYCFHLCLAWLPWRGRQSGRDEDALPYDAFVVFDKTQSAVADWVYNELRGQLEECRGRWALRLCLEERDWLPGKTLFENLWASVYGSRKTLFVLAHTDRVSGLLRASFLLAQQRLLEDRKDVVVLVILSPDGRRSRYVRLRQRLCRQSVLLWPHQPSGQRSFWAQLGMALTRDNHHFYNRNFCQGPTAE
# Assay: HEK293-Blue-hTLR-9 cells assay (SEAP reporter, ODN2006 stimulation)
# Format: cell-based
# Set-up: host or cells: HEK293 (HEK-Blue)
# Details: HEK293-Blue-hTLR9 cells, ODN2006, 20 hrs; read-out: HEK/hTLR9 IC50
# Text: A stable HEK293-Blue-hTLR-9 cell line was purchased from InvivoGen (Cat.#: hkb-htlr9, San Diego, California, USA). These cells were originally designed for studying the stimulation of human TLR9 by monitoring the activation of NF-κB. A SEAP (secreted embryonic alkaline phosphatase) reporter gene was placed under the control of the IFN-β minimal promoter fused to five NF-κB and AP-1-binding sites. The SEAP was induced by activating NF-κB and AP-1 via stimulating HEK-Blue hTLR9 cells with TLR9 ligands. Therefore, the reporter expression was declined by TLR9 antagonist under the stimulation of a ligand, such as ODN2006 (Cat.#: tlrl-2006-1, Invivogen, San Diego, California, USA), for incubation of 20 hrs. The cell culture supernatant SEAP reporter activity was determined using QUANTI-Blue™ kit (Cat.#: rep-qb 1, Invivogen, San Diego, California, USA) at a wavelength of 640 nm, a detection medium that turns purple or blue in the presence of alkaline phosphatase.
# HEK293-Blue-hTLR9 cells were incubated at a density of 250,000-450,000 cells/mL in a volume of 170 µL in a 96-well plate in Dulbecco's Modified Eagle's medium (DMEM) containing 4.5 g/L glucose, 50 U/mL penicillin, […], […], 2 mM L-glutamine, 10% (v/v) heat-inactivated fetal bovine serum with addition of 20 µL test compound in a serial dilution in the presence of final DMSO at 1% and 10 µL of 20uM ODN2006 in above DMEM, perform incubation under 37 °C in a CO2 incubator for 20 hrs. Then 20 µL of the supernatant from each well was incubated with 180 µL Quanti-blue substrate solution at 37 °C for 2 hrs and the absorbance was read at 620-655 nm using a spectrophotometer. The signaling pathway that TLR9 activation leads to downstream NF-κB activation has been widely accepted, and therefore similar reporter assay was modified for evaluating TLR9 antagonist.
row,SMILES,IC50 [nM]
1,"C[C@@H]1CN(c2ccc(C#N)c3ncccc23)C[C@H](CN2CCN(c3cnc4c(c3)CCNC4)CC2)O1 [Example 23, 5-[(2R,6S)-2-methyl-6-[[4-(5,6,7,8-tetrahydro-1,7-naphthyridin-3-yl)piperazin-1-yl]methyl]morpholin-4-yl]quinoline-8-carbonitrile]",59
2,"C[C@@H]1CN(c2ccc(C#N)c3ncccc23)C[C@H](CN2CCN(c3ccc4c(c3)CCNC4CO)CC2)O1 (stereo partly drawn) [Example 24, 5-[(2S,6R)-2-[[4-[1-(hydroxymethyl)-1,2,3,4-tetrahydroisoquinolin-6-yl]piperazin-1-yl]methyl]-6-methyl-morpholin-4-yl]quinoline-8-carbonitrile]",46
3,"C[C@@H]1CN(c2ccc(C#N)c3nccnc23)C[C@H](CN2CCN(c3cnc4c(c3)CNC4)CC2)O1 [Example 25, 8-[(2S,6R)-2-[[4-(6,7-dihydro-5H-pyrrolo[3,4-b]pyridin-3-yl)piperazin-1-yl]methyl]-6-methyl-morpholin-4-yl] quinoxaline-5-carbonitrile]",90
4,"C[C@@H]1CN(c2ccc(C#N)n3ncc(F)c23)C[C@H](CN2CCN(c3cnc4c(c3)CNC4)CC2)O1 [Example 26, 4-[(2S,6R)-2-[[4-(6,7-dihydro-5H-pyrrolo[3,4-b]pyridin-3-yl)piperazin-1-yl]methyl]-6-methyl-morpholin-4-yl]-3-fluoro-pyrazolo[1,5-a]pyridine-7-carbonitrile]",119
5,"CC1NCc2cc(N3CCN(C[C@H]4CN(c5ccc(C#N)c6ncccc56)C[C@@H](C)O4)CC3)ccc21 (stereo partly drawn) [Example 28, 5-[(2R,6S)-2-methyl-6-[[4-(1-methylisoindolin-5-yl)piperazin-1-yl]methyl]morpholin-4-yl]quinoline-8-carbonitrile]",52
6,"C[C@@H]1CN(c2ccc(C#N)c3ncccc23)C[C@H](CN2CCN(c3ncc4c(n3)CCNC4)CC2)O1 [Example 29, 5-[(2R,6S)-2-methyl-6-[[4-(5,6,7,8-tetrahydropyrido[4,3-d]pyrimidin-2-yl)piperazin-1-yl]methyl]morpholin-4-yl]quinoline-8-carbonitrile]",122
7,"C[C@@H]1CN(c2ccc(C#N)c3ncccc23)C[C@H](CN2CCN(c3ccc4c(n3)CNC4)CC2)O1 [Example 30, 5-[(2S,6R)-2-[[4-(6,7-dihydro-5H-pyrrolo[3,4-b]pyridin-2-yl)piperazin-1-yl]methyl]-6-methyl-morpholin-4-yl] quinoline-8-carbonitrile]",41
8,"C[C@@H]1CN(c2ccc(C#N)c3ncccc23)C[C@H](CN2CCN(c3nc4c(s3)CNCC4)CC2)O1 [Example 31, 5-[(2R,6S)-2-methyl-6-[[4-(4,5,6,7-tetrahydrothiazolo[5,4-c]pyridin-2-yl)piperazin-1-yl]methyl]morpholin-4-yl]quinoline-8-carbonitrile]",140
9,"C[C@@H]1CN(c2ccc(C#N)c3ncccc23)C[C@H](CN2CCC(Nc3ncc4c(n3)CNC4)C2)O1 (stereo partly drawn) [Example 32, 5-[(2S,6R)-2-[[3-(6,7-dihydro-5H-pyrrolo[3,4-d]pyrimidin-2-ylamino)pyrrolidin-1-yl]methyl]-6-methyl-morpholin-4-yl]quinoline-8-carbonitrile]",99
10,"C[C@@H]1CN(c2ccc(C#N)c3ncccc23)C[C@H](CN2CCCN(c3nc4c(s3)CNCC4)CC2)O1 [Example 33, 5-[(2R,6S)-2-methyl-6-[[4-(4,5,6,7-tetrahydrothiazolo[5,4-c]pyridin-2-yl)-1,4-diazepan-1-yl]methyl]morpholin-4-yl]quinoline-8-carbonitrile]",90
11,"C[C@@H]1CN(c2ccc(C#N)c3ncccc23)C[C@H](CN2CCN(c3ccc4c(n3)CCN(C)C4)CC2)O1 [Example 34, 5-[(2R,6S)-2-methyl-6-[[4-(6-methyl-7,8-dihydro-5H-1,6-naphthyridin-2-yl)piperazin-1-yl]methyl]morpholin-4-yl]quinoline-8-carbonitrile]",86
12,"C[C@@H]1CN(c2ccc(C#N)c3ncccc23)C[C@H](CN2CC3(CCN3c3ccc4c(n3)CCNC4)C2)O1 [Example 36, 5-[(2R,6S)-2-methyl-6-[[1-(5,6,7,8-tetrahydro-1,6-naphthyridin-2-yl)-1,6-diazaspiro[3.3]heptan-6-yl]methyl]morpholin-4-yl]quinoline-8-carbonitrile]",45
13,"C[C@@H]1CN(c2ccc(C#N)c3ncccc23)C[C@H](CN2CCC(Nc3ccc4c(c3)CNC4)C2)O1 (stereo partly drawn) [Example 38, 5-[(2S,6R)-2-[[3-(isoindolin-5-ylamino)pyrrolidin-1-yl]methyl]-6-methyl-morpholin-4-yl]quinoline-8-carbonitrile]",34
14,"C[C@@H]1CN(c2ccc(C#N)c3ncccc23)C[C@H](CN2CCCN(c3ncc4c(n3)CCNC4)CC2)O1 [Example 39, 5-[(2R,6S)-2-methyl-6-[[4-(5,6,7,8-tetrahydropyrido[4,3-d]pyrimidin-2-yl)-1,4-diazepan-1-yl]methyl]morpholin-4-yl]quinoline-8-carbonitrile]",90
15,"C[C@@H]1CN(c2ccc(C#N)c3ncccc23)C[C@H](CN2CCN(c3cnc4c(n3)CNCC4)CC2)O1 [Example 40, 5-[(2R,6S)-2-methyl-6-[[4-(5,6,7,8-tetrahydropyrido[3,4-b]pyrazin-3-yl)piperazin-1-yl]methyl]morpholin-4-yl]quinoline-8-carbonitrile]",123
16,"CC1NCc2ncc(N3CCN(C[C@H]4CN(c5ccc(C#N)c6ncccc56)C[C@@H](C)O4)CC3)cc21 (stereo partly drawn) [Example 41, 5-[(2R,6S)-2-methyl-6-[[4-(5-methyl-6,7-dihydro-5H-pyrrolo[3,4-b]pyridin-3-yl)piperazin-1-yl]methyl]morpholin-4-yl]quinoline-8-carbonitrile]",60
17,"C[C@@H]1CN(c2ccc(C#N)c3ncccc23)C[C@H](CNC2CN(c3cnc4c(c3)CNC4)C2)O1 [Example 43, 5-[(2S,6R)-2-[[[1-(6,7-dihydro-5H-pyrrolo[3,4-b]pyridin-3-yl)azetidin-3-yl]amino]methyl]-6-methyl-morpholin-4-yl]quinoline-8-carbonitrile]",111
18,"C[C@@H]1CN(c2ccc(C#N)c3ncccc23)C[C@H](CN2CC3(C2)CN(c2ccc4c(c2)CCNC4)CCO3)O1 [Example 44, 5-[(2R,6S)-2-methyl-6-[[8-(1,2,3,4-tetrahydroisoquinolin-6-yl)-5-oxa-2,8-diazaspiro[3.5]nonan-2-yl]methyl]morpholin-4-yl]quinoline-8-carbonitrile]",85
19,"C[C@@H]1CN(c2ccc(C#N)c3ncccc23)C[C@H](CN2CC3(C2)CN(c2ccc4c(n2)CNCC4)CCO3)O1 [Example 45, 5-[(2R,6S)-2-methyl-6-[[8-(5,6,7,8-tetrahydro-1,7-naphthyridin-2-yl)-5-oxa-2,8-diazaspiro[3.5]nonan-2-yl]methyl]morpholin-4-yl]quinoline-8-carbonitrile]",113
20,"C[C@@H]1CN(c2ccc(C#N)c3ncccc23)C[C@H](CN2CC3(C2)CN(c2cnc4c(c2)CCNC4)CCO3)O1 [Example 46, 5-[(2R,6S)-2-methyl-6-[[8-(5,6,7,8-tetrahydro-1,7-naphthyridin-3-yl)-5-oxa-2,8-diazaspiro[3.5]nonan-2-yl]methyl]morpholin-4-yl]quinoline-8-carbonitrile]",114
